Measurements published in patent US11505543B2, “4-oxo-3,4-dihydroquinazoline compounds as inhibitors of human immunodeficiency virus replication” (VIIV HEALTHCARE UK (NO.5) LIMITED, priority 2018, dated 2022).
pEC50: −log10 of the molar value.

Columns and labels:
[1] = system: recombinant NL4-3 virus (nef section replaced with Renilla luciferase gene) in MT-2 cells; assay: HIV cell culture assay (antiviral activity, luciferase readout); format: cell-based; details: Renilla, NL43, MT-2 cells infected for 4-5 days with recombinant NL4-3 Renilla luciferase virus, serial dilutions of compound
Description: HIV cell culture assay—MT-2 cells, 293T cells and the proviral DNA clone of NL4-3 virus were obtained from the NIH AIDS Research and Reference Reagent Program. MT-2 cells were propagated in RPMI 1640 media supplemented with 10% heat inactivated fetal bovine serum (FBS), 100 μg/ml penicillin G and up to 100 units/mL streptomycin. The 293T cells were propagated in DMEM media supplemented with 10% heat inactivated FBS, 100 μg/mL penicillin G and 100 μg/mL streptomycin. A recombinant NL4-3 proviral clone, in which a section of the nef gene was replaced with the Renilla luciferase gene, was used to make the reference virus used in these studies. The recombinant virus was prepared through transfection of the recombinant NL4-3 proviral clone into 293T cells using Transit-293 Transfection Reagent from Mirus Bio LLC (Madison, Wis.). Supernatent was harvested after 2-3 days and the amount of virus present was titered in MT-2 cells using luciferase enzyme activity as a marker by measuring luciferase enzyme activity. Luciferase was quantitated using the EnduRen Live Cell Substrate from Promega (Madison, Wis.). Antiviral activities of compounds toward the recombinant virus were quantified by measuring luciferase activity in MT-2 cells infected for 4-5 days with the recombinant virus in the presence of serial dilutions of the compound.
The 50% effective concentration (EC50) was calculated by using the exponential form of the median effect equation where (Fa)=1/[1+(ED50/drug conc.)^m] (Johnson VA, Byington RT. Infectivity Assay. In Techniques in HIV Research. ed. Aldovini A, Walker BD. 71-76. New York: Stockton Press. 1990). Curve fitting and analysis were performed with ActivityBase XE Runner software version 9.1.0.4 using model 203 (ID Business Solutions, LTD, Guildford, UK).

[2] = Compound cytotoxicity, XTT-based colorimetric assay; format: cell-based; details: human, uninfected MT2 cells, day 4, XTT
Description: Compound cytotoxicity and the corresponding CC50 values were determined using the same protocol as described in the antiviral assay except that uninfected cells were used. Cytotoxicity was assessed on day 4 in uninfected MT2 cells by using a XTT (2,3-bis[2-Methoxy-4-nitro-5-sulfophenyl]-2H-tetrazolium-5-carboxyanilide inner salt)-based colorimetric assay (Sigma-Aldrich, St Louis, Mo.).

SMILES: Cc1cc(-c2ccc3c(=O)n(-c4ccc(Cl)c5c(NS(C)(=O)=O)nn(C)c45)c([C@H](Cc4cc(F)cc(F)c4)NC(=O)Cn4nc(C(F)F)c5c4C(F)(F)[C@@H]4C[C@H]54)nc3c2)ccc1Cl (atropisomer, axis not shown; (aR)) [Example 31, N-((S)-1-(3-(4-chloro-1-methyl-3-(methylsulfonamido)-1H-indazol-7-yl)-7-(4-chloro-3-methylphenyl)-4-oxo-3,4-dihydroquinazolin-2-yl)-2-(3,5-difluorophenyl)ethyl)-2-((3bS,4aR)-3-(difluoromethyl)-5,5-difluoro-3b,4,4a,5-tetrahydro-1H-cyclopropa[3,4]cyclopenta[1,2-c]pyrazol-1-yl)acetamide]
- pEC50 [1]: 8.33
- CC50 at 4 day [2]: > 1000 nM

SMILES: Cn1nc(NS(C)(=O)=O)c2c(Cl)ccc(-n3c([C@H](Cc4cc(F)cc(F)c4)NC(=O)Cn4nc(C(F)F)c5c4C(F)(F)[C@@H]4C[C@H]54)nc4cc(-c5ccc(C(=O)N6CCCCC6)cc5)ccc4c3=O)c21 (atropisomer, axis not shown; (aR)) [Example 34, N-((S)-1-(3-(4-chloro-1-methyl-3-(methylsulfonamido)-1H-indazol-7-yl)-4-oxo-7-(4-(piperidine-1-carbonyl)phenyl)-3,4-dihydroquinazolin-2-yl)-2-(3,5-difluorophenyl)ethyl)-2-((3bS,4aR)-3-(difluoromethyl)-5,5-difluoro-3b,4,4a,5-tetrahydro-1H-cyclopropa[3,4]cyclopenta[1,2-c]pyrazol-1-yl)acetamide]
- pEC50 [1]: 9.34
- CC50 at 4 day [2]: > 1000 nM

SMILES: Cn1nc(NS(C)(=O)=O)c2c(Cl)ccc(-n3c([C@H](Cc4cc(F)cc(F)c4)NC(=O)Cn4nc(C(F)F)c5c4C(F)(F)[C@@H]4C[C@H]54)nc4cc(-c5ccc(F)c(C(=O)O)c5)ccc4c3=O)c21 (atropisomer, axis not shown; (aR)) [Example 38, 5-(3-(4-chloro-1-methyl-3-(methylsulfonamido)-1H-indazol-7-yl)-2-((S)-1-(2-((3bS,4aR)-3-(difluoromethyl)-5,5-difluoro-3b,4,4a,5-tetrahydro-1H-cyclopropa[3,4]cyclopenta[1,2-c]pyrazol-1-yl)acetamido)-2-(3,5-difluorophenyl)ethyl)-4-oxo-3,4-dihydroquinazolin-7-yl)-2-fluorobenzoic acid]
- pEC50 [1]: 8.00
- CC50 at 4 day [2]: > 1000 nM

SMILES: Cn1nc(NS(C)(=O)=O)c2c(Cl)ccc(-n3c([C@H](Cc4cc(F)cc(F)c4)NC(=O)Cn4nc(C(F)F)c5c4C(F)(F)[C@@H]4C[C@H]54)nc4cc(-c5cnccn5)ccc4c3=O)c21 (atropisomer, axis not shown; (aR)) [Example 39, N-((S)-1-(3-(4-chloro-1-methyl-3-(methylsulfonamido)-1H-indazol-7-yl)-4-oxo-7-(pyrazin-2-yl)-3,4-dihydroquinazolin-2-yl)-2-(3,5-difluorophenyl)ethyl)-2-((3bS,4aR)-3-(difluoromethyl)-5,5-difluoro-3b,4,4a,5-tetrahydro-1H-cyclopropa[3,4]cyclopenta[1,2-c]pyrazol-1-yl)acetamide]
- pEC50 [1]: 10.28
- CC50 at 4 day [2]: > 1000 nM

SMILES: Cn1nc(NS(C)(=O)=O)c2c(Cl)ccc(-n3c([C@H](Cc4cc(F)cc(F)c4)NC(=O)Cn4nc(C(F)F)c5c4C(F)(F)[C@@H]4C[C@H]54)nc4cc(-c5ncccn5)ccc4c3=O)c21 (atropisomer, axis not shown; (aR)) [Example 40, N-((S)-1-(3-(4-chloro-1-methyl-3-(methylsulfonamido)-1H-indazol-7-yl)-4-oxo-7-(pyrimidin-2-yl)-3,4-dihydroquinazolin-2-yl)-2-(3,5-difluorophenyl)ethyl)-2-((3bS,4aR)-3-(difluoromethyl)-5,5-difluoro-3b,4,4a,5-tetrahydro-1H-cyclopropa[3,4]cyclopenta[1,2-c]pyrazol-1-yl)acetamide]
- pEC50 [1]: 10.60
- CC50 at 4 day [2]: > 1000 nM
